Laboratory results as given in patent US11590134B2, “Aminopyrimidine amide autophagy inhibitors and methods of use thereof” (Deciphera Pharmaceuticals, LLC, priority 2019, dated 2023).

What was measured:
LRRK2 kinase = target: T1, LRRK2 kinase (Homo sapiens, UniProt Q5S007); assay: Biochemical assay for LRRK2 (coupled pyruvate kinase/lactate dehydrogenase assay); details: 26.4 nM LRRK2 (residues 970-2528), peptide substrate, 1 mM ATP
T1 construct: (residues 970-2528; ID NO; 4); purchased Thermo Fisher
Description: Activity of LRRK2 kinase was determined spectroscopically using a coupled pyruvate kinase/lactate dehydrogenase assay that continuously monitors the ATP hydrolysis-dependent oxidation of NADH (e.g., Schindler et al. Science (2000) 289: 1938-1942). Assays were conducted in 384-well plates (100 uL final volume) using 26.4 nM LRRK2 (Thermo Fisher), 0.1 mM peptide substrate (RLGRDKYKTLRQIRQ (SEQ ID NO: 6)), 1.5 units pyruvate kinase, 2.1 units lactate dehydrogenase, 1 mM phosphoenol pyruvate, 0.28 mM NADH and 1 mM ATP in assay buffer (100 mM Tris, pH 7.5, 15 mM MgCl2, 0.5 mM DTT, 0.004% (w/v) BSA, and 0.004% Triton X-100). Inhibition of LRRK2 was measured by adding serial diluted test compound (final assay concentration of 1% DMSO). A decrease in absorption at 340 nm was monitored continuously for 6 hours at 30° C. on a multi-mode microplate reader (BioTek). The reaction rate was calculated using the 2-3 h time frame. The reaction rate at each concentration of compound was converted to percent inhibition using controls (i.e. reaction with no test compound and reaction with a known inhibitor) and IC50 values were calculated using software routines in Prism (GraphPad software).

ULK1 kinase = target: T2, ULK1 kinase (Homo sapiens, UniProt O75385); assay: Biochemical assay for ULK1.2 (coupled pyruvate kinase/lactate dehydrogenase assay); details: 19 nM ULK1 (residues 1-314), myelin basic protein substrate, 1 mM ATP
T2 construct: purchased Eurofins 14-959
T2 sequence (O75385 with tags, fused parts or gaps): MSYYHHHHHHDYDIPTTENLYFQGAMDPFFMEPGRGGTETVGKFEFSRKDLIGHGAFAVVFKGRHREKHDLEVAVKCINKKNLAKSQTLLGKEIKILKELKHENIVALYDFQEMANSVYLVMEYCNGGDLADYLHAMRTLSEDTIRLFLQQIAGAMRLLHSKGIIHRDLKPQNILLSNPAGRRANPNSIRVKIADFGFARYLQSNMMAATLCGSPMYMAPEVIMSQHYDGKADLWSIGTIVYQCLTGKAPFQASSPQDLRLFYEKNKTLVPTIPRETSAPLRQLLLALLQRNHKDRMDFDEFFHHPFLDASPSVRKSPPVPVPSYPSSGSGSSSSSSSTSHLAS
Description: (§1) Activity of ULK1 kinase was determined spectroscopically using a coupled pyruvate kinase/lactate dehydrogenase assay that continuously monitors the ATP hydrolysis-dependent oxidation of NADH (e.g., Schindler et al. Science (2000) 289: 1938-1942). Assays were conducted in 384-well plates (100 uL final volume) using 19 nM ULK1 (Eurofins CAT #14-959), 0.25 mg/mL myelin basic protein, 1.5 units pyruvate kinase, 2.1 units lactate dehydrogenase, 1 mM phosphoenol pyruvate, 0.28 mM NADH and 1 mM ATP in assay buffer (100 mM Tris, pH 7.5, 15 mM MgCl2, 0.5 mM DTT, 0.1% octyl-glucoside, 0.002% (w/v) BSA, and 0.002% Triton X-100). Inhibition of ULK1 was measured by adding serial diluted test compound (final assay concentration of 1% DMSO). A decrease in absorption at 340 nm was monitored continuously for 6 hours at 30° C. on a multi-mode microplate reader (BioTek). The reaction rate was calculated using the 2-3 h time frame. The reaction rate at each concentration of compound was converted to percent inhibition using controls (i.e. reaction with no test compound and reaction with a known inhibitor) and IC50 values were calculated by fitting a four-parameter sigmoidal curve to the data using Prism (GraphPad software).

[1] = system: ULK kinase substrate ATG13 (phospho-Serine 318 ATG13) in A549 cells; assay: pATG13 ELISA in mutant KRas A549 cells in combination with trametinib; type: cell-based; details: A549 (KRAS mutant) human lung cancer cells, with 250 nM trametinib, overnight
Description: A549 (KRAS mutant) human lung cancer cells (6,000 cells/well) were added to a 384-well tissue-culture treated plate in 50 μL of pre-warmed DMEM medium supplemented with 10% characterized fetal bovine serum (Invitrogen, Carlsbad, Calif.), 100 units/mL penicillin G, and 100 μg/mL streptomycin and allowed to grow overnight at 37° C., 5% CO2, and 95% humidity. The following day, 10 μL of media containing trametinib or DMSO as a control was added to wells. The final concentration of trametinib in wells was 250 nM. A dose response of a test compound (0.6 μL per well) was added. DMSO (0.6 μL) was added to control wells. The plate was briefly shaken to mix wells and then incubated at 37° C. overnight. The next day, the media was aspirated and cells were washed with Dulbecco's Phosphate Buffered Saline (Gibco). Cells were lysed using MPER lysis buffer (Pierce, Rockford, Ill.) containing Halt Phosphatase and Protease Inhibitors (Pierce, Rockford, Ill.) and Phosphatase inhibitor cocktail 2 (Sigma, St. Louis, Mo.) at 4° C. for 10 minutes with shaking.
Cellular levels of phospho-Serine 318 ATG13 (pATG13) were measured via an ELISA method. Total ATG13 Antibody (Cell Signaling Cat #13273) was used to coat the wells. The plate was incubated at 4° C. overnight and washed with ELISA wash buffer (Biolegend Cat #421601). The wells were then blocked with assay diluent (Biolegend Cat #421203) for 1 hour at room temperature. Plate wells were washed with ELISA wash buffer. Cell lysate was added to wells and incubated at room temperature for 2 hours. Plate wells were washed with ELISA wash buffer. Biotinylated pS318-ATG13 antibody (Rockland Immunochemicals Cat #600-401-C49) was diluted in assay diluent and added to each well and incubated at room temperature for 1 hour. Plate wells were washed with ELISA wash buffer. Streptavidin linked to horseradish peroxidase (Thermo Fisher Cat #21140) was diluted in assay diluent and added to each well and incubated at room temperature for 1 hour. Plate wells were washed with ELISA wash buffer. High sensitivity TMB substrate (Biolegend Cat #421101) was added to each well and incubated at room temperature for 20 minutes. The reaction was stopped with 2N Sulfuric Acid. The plate was analyzed at on a plate reader measuring absorbance at 450 nm and 540 nm (background). Signal was calculated by first subtracting the background absorbance at 540 nm from the absorbance at 450 nm for each well. Next, the background corrected absorbance at 450 nm from blank wells was subtracted from test wells. Data was compared to control wells to determine % ATG13 phosphorylation. GraphPad Prism was used to calculate IC50 values.

ULK2 kinase = target: T3, ULK2 kinase (Homo sapiens, UniProt Q8IYT8); assay: Biochemical assay for ULK2 (coupled pyruvate kinase/lactate dehydrogenase assay); details: 9.7 nM ULK2 (residues 1-306), myelin basic protein substrate, 1 mM ATP; read-out: ULK2.2
T3 construct: purchased Eurofins 14-772
Description: as §1, with “of ULK2” for “of ULK1”, “using 9.7” for “using 19”, “nM ULK2” for “nM ULK1”, “CAT #14-772),” for “CAT #14-959),”

T3 sequence (Q8IYT8 with tags, fused parts or gaps): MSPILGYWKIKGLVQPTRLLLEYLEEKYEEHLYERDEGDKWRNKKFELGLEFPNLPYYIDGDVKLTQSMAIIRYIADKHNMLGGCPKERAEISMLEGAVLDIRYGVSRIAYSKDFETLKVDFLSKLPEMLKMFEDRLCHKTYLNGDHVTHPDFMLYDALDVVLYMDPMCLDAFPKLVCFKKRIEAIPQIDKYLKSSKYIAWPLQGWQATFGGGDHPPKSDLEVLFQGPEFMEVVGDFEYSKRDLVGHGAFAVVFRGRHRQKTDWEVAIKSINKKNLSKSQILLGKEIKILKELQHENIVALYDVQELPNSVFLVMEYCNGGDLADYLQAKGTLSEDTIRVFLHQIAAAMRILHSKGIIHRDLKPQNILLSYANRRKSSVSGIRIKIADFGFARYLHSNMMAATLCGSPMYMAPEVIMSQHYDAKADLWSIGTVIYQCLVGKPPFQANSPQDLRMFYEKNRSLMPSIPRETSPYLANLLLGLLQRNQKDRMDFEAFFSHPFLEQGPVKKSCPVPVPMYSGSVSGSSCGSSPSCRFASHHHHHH
T1 sequence (Q5S007 with tags, fused parts or gaps): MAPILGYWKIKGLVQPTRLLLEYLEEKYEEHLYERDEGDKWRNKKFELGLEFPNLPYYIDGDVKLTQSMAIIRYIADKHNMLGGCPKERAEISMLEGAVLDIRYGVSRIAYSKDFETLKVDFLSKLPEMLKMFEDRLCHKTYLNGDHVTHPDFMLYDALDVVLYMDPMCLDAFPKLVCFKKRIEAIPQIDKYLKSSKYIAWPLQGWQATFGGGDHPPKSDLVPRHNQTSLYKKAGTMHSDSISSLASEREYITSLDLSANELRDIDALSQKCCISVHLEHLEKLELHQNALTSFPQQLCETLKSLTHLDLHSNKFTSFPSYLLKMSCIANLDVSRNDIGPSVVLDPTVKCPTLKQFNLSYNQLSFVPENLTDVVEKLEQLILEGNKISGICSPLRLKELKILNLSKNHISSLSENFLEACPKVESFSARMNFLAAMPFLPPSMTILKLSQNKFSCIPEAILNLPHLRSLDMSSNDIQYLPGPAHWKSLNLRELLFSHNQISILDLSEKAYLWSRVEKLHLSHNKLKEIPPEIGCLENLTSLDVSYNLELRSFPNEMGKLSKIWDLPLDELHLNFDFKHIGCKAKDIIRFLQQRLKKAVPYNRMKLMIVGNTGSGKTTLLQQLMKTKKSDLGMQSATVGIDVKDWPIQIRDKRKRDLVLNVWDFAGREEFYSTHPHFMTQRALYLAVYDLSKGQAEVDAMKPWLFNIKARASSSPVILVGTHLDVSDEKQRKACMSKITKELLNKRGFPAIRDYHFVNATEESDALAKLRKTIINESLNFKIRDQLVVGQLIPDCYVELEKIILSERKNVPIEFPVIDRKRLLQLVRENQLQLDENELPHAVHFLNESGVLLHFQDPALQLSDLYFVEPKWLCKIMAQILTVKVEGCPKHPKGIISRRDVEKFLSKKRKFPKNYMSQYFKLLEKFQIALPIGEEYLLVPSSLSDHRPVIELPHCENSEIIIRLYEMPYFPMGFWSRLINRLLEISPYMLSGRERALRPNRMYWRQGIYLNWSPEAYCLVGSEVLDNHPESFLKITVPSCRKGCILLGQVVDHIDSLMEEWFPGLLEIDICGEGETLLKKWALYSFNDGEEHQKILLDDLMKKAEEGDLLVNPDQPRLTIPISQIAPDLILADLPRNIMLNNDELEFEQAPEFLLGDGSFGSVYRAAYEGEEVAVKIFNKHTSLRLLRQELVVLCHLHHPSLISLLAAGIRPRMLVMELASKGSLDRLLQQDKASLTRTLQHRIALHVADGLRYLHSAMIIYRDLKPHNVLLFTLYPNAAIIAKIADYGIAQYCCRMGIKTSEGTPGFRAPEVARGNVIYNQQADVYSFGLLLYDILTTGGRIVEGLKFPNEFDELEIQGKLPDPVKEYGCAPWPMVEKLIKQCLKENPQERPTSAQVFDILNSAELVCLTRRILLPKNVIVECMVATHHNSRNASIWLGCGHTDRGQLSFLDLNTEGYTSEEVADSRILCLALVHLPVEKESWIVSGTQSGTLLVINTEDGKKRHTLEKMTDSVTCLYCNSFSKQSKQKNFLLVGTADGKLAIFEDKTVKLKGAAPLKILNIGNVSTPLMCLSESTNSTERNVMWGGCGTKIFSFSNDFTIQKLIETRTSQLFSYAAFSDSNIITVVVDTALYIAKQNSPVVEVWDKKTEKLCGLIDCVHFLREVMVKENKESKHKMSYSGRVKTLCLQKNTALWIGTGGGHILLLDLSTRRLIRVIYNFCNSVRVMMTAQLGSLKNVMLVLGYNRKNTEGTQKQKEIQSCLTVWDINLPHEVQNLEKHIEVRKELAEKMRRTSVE

IC50 (LRRK2 kinase) [nM] | IC50 (ULK1 kinase) [nM] | IC50 [1] [nM] | IC50 (ULK2 kinase) [nM] | SMILES
100 to 300 | 1 to 25 | 100 to 300 | 25 to 100 | [2H]C([2H])([2H])N1CCC(n2cc(Nc3ncc(C(F)(F)F)c(NCCCNC(=O)C4CCC4)n3)c(C)n2)CC1 [Example 20]
1 to 100 | 100 to 500 | – | – | Cc1cc(C2CCN(C)CC2)ccc1Nc1ncc(Cl)c(NCCCN(C)C(=O)C2CCC2)n1 [Example 17]
1 to 100 | 1 to 25 | 100 to 300 | 25 to 100 | Cc1nn(C2CCNCC2)cc1Nc1ncc(C(F)(F)F)c(NCCCNC(=O)C2CCC2)n1 [Example 21, N-(3-((2-((3-methyl-1-(piperidin-4-yl)-1H-pyrazol-4-yl)amino)-5-(trifluoromethyl)pyrimidin-4-yl)amino)propyl)cyclobutanecarboxamide]
1 to 100 | 25 to 100 | 300 to 600 | – | Cc1nn(C2CCN(C(C)C)CC2)cc1Nc1ncc(C(F)(F)F)c(NCCCNC(=O)C2CCC2)n1 [Example 22, N-(3-((2-((1-(1-isopropylpiperidin-4-yl)-3-methyl-1H-pyrazol-4-yl)amino)-5-(trifluoromethyl)pyrimidin-4-yl)amino)propyl)cyclobutanecarboxamide]
300 to 600 | 500 to 20000 | – | 500 to 20000 | Cc1cc(N2CCOCC2)ncc1Nc1ncc(C(F)(F)F)c(NCCCNC(=O)C2CCC2)n1 [Example 6]
1 to 100 | 100 to 500 | – | – | Cc1cc(C2CCNCC2)ccc1Nc1ncc(Cl)c(NCCCN(C)C(=O)C2CCC2)n1 [Example 15]
– | 100 to 500 | – | – | Cc1cc(N2CCN(C)CC2)ncc1Nc1cc(NCCCNC(=O)C2CCC2)c(C(F)(F)F)cn1 [Example 31, N-(3-((2-((4-methyl-6-(4-methylpiperazin-1-yl)pyridin-3-yl)amino)-5-(trifluoromethyl)pyridin-4-yl)amino)propyl)cyclobutanecarboxamide]
1 to 100 | 1 to 25 | 100 to 300 | 25 to 100 | Cc1cc(C2CCNCC2)ccc1Nc1ncc(C(F)(F)F)c(NCCCN(C)C(=O)C2CCC2)n1 [Example 16]
1 to 100 | 1 to 25 | – | 25 to 100 | Cc1nn(C2CCN(C)CC2)cc1Nc1ncc(Cl)c(NCCCN(C)C(=O)C2CCC2)n1 [Example 27]
100 to 300 | 25 to 100 | – | – | [2H]C([2H])([2H])N1CCC(n2cc(Nc3ncc(Br)c(NCCCNC(=O)C4CCC4)n3)c(C)n2)CC1 [Example 29]
600 to 20000 | 100 to 500 | – | – | Cc1nn(C2CCNCC2)cc1Nc1ncc(C2CC2)c(NCCCNC(=O)C2CCC2)n1 [Example 24]
1 to 100 | 1 to 25 | 100 to 300 | – | Cc1cc(N2CCN(C)CC2)ccc1Nc1ncc(C(F)(F)F)c(NCCCNC(=O)C2CCC2)n1 [Example 2]
1 to 100 | 1 to 25 | 10 to 100 | 25 to 100 | Cc1nn(C2CCN(CC(C)C)CC2)cc1Nc1ncc(C(F)(F)F)c(NCCCNC(=O)C2CCC2)n1 [Example 23]
1 to 100 | 1 to 25 | – | – | Cc1cc(C2CCN(C)CC2)ccc1Nc1ncc(C(F)(F)F)c(NCCCN(C)C(=O)C2CCC2)n1 [Example 18]
600 to 20000 | 100 to 500 | – | – | Cc1nn(C2CCN(C)CC2)cc1Nc1ncc(C2CC2)c(NCCCNC(=O)C2CCC2)n1 [Example 25]
600 to 20000 | 500 to 20000 | – | – | COc1cc(N2CCN(C)CC2)ccc1Nc1ncc(C2CC2)c(NCCCNC(=O)C2CCC2)n1 [Example 11]
600 to 20000 | 100 to 500 | – | 100 to 500 | Cc1cc(N2CCN(C)CC2)ncc1Nc1ncc(C(F)(F)F)c(NCCCNC(=O)C2CCC2)n1 [Example 5]
